Laboratory results as given in patent publication US20240400591A1 (Jacobio Pharmaceuticals Co., Ltd., priority 2021, published 2024).
Read-outs that look alike come from different tables or passages of the source.

How the values were obtained:
NUGC3 (P53 Y220C) = experiment: Cell viability assay (CellTiter-Glo, 6 days), NUGC3; type: cell-based; conditions: cell viability, 6 days, CellTiter-Glo, read-out: NUGC3 (P53 Y220C) IC50
Description: (§1) Cells were collected and counted. A desired number of cells was seeded into 96-well microplate and cultured in 37° C. cell incubator overnight. Compounds dissolved in cell culture medium were added into cell plate and cultured for 6 days. After balancing CellTiter-Glo reagent and cells at room temperature for 30 min, equal volume of CellTiter-Glo reagents was added to assay plate and shaken for 2 min for cell lysis. The cells were balanced at room temperature for 10 minutes and Luminescence signal was read using Envision. The percent of cell viability for compounds treated wells were normalized between High control and low control. Wells containing cell culture medium and same percentage DMSO sewved as Low control. Wells containing cells and same percentage DMSO sewved as High control. Cell viability (%)=(Luminescence readoutCompound treated−Luminescence readoutLow control)/(Luminescence readoutHigh control−Luminescence readoutLow control)*100%. Then the data were analyzed either by fitting a 4-parameter logistic model or by Excel to calculate IC50 values. And the IC50 was the concentration at 50% Cell viability on the curve.

[1] = target: T1, His-p53 Y220C (94-294) protein (Homo sapiens, UniProt P04637, Y220C); experiment: In vitro DNA binding assay (HTRF); type: biochemical; conditions: % activation normalized to 2 μM Ref-1a high control
T1 construct: His-p53 Y220C (94-294) protein

[2] = test system: NUGC-3_P53_Luc single clonal cell line (p53 Y220C); experiment: Reporter gene assay (p53 RE luciferase); type: cell-based; conditions: luciferase reporter, 6 hours, normalized to Ref-1a (10 μM) high control, read-out: p53(Y220C)_NUGC-3 EC50
Description: NUGC-3_P53_Luc single clonal cell line was established using pGL4.38[luc2P/p53 RE/Hygro] Vector (E365A, promega). NUGC-3_P53-Luc single clonal cells were cultured in 37° C. cell incubator before use. NUGC-3-P53-Luc cells were collected and washed twice with PBS to remove phenol red and then resuspended in medium to a proper concentration. Tested compound dilutions were transferred into 384 well assay plates (PerkinElmer). A desired number of cells was seeded into the assay plate and cultured for 6 hours at 37° C. cell incubator. Britelite plus Luciferase Assay Reagent were added into each well and the luminescence value was recorded on Envision. The percent of activity value of compounds treated wells was normalized between high control and low control. Wells containing cells and Ref-1a (10 μM) sewved as high control, and wells containing cells and same percentage of DMSO sewved as low control. Activity value (%)=(Luminescence readoutCompound treated−Luminescence readoutLow control)/(Luminescence readoutHigh control−Luminescence readoutLow control)*100%. Then the data were analyzed either by fitting a 4-parameter logistic model or by Excel to calculate EC50 values and the EC50 was the concentration at 50% Activity on the curve.

NUGC4 (P53 WT) = experiment: Cell viability assay (CellTiter-Glo, 6 days), NUGC4; type: cell-based; conditions: cell viability, 6 days, CellTiter-Glo, read-out: NUGC4 (P53 WT) IC50
Description: as §1

| EC50 [1] [µM] | SMILES | IC50 (NUGC3 (P53 Y220C)) [µM] | EC50 [2] [µM] | IC50 (NUGC4 (P53 WT)) [µM] | IC50 (NUGC3 (P53 Y220C); Homo sapiens, NUGC-3, 144 h) [µM] | EC50 ([2]; Homo sapiens, NUGC-3) [µM] | IC50 (NUGC4 (P53 WT); Homo sapiens, NUGC-4, 144 h) [µM] | EC50 ([2]; Homo sapiens, NUGC-3, 6 h) [µM] |
| --- | --- | --- | --- | --- | --- | --- | --- | --- |
| 0.042 | [2H]C([2H])([2H])Oc1cc(P(C)(C)=O)ccc1NCC#Cc1sc2c(N[C@@H]3CCN(C4CCOCC4)C[C@@H]3F)cccc2c1CC(F)(F)F [Example 184, (4-((3-(7-(((3S,4R)-3-fluoro-1-(tetrahydro-2H-pyran-4-yl)piperidin-4-yl)amino)-3-(2,2,2-trifluoroethyl)benzo[b]thiophen-2-yl)prop-2-yn-1-yl)amino)-3-(methoxy-d3)phenyl)dimethylphosphine oxide] | – | – | – | 0.44 | 0.1 | 4.46 | – |
| 0.054 | COc1cc(P(C)(C)=O)ccc1NCC#Cc1sc2c(N[C@@H]3CCN(C4CCCCOC4)C[C@@H]3F)cccc2c1CC(F)(F)F (stereo partly drawn) [Example 185, (4-((3-(7-(((3S,4R)-3-fluoro-1-(oxepan-3-yl)piperidin-4-yl)amino)-3-(2,2,2-trifluoroethyl)benzo[b]thiophen-2-yl)prop-2-yn-1-yl)amino)-3-methoxyphenyl)dimethylphosphine oxide] | – | – | – | 0.88 | 0.11 | 2.79 | – |
| 0.044 | COc1cc(C(=O)NC2CCN(C)CC2F)ccc1NCC#Cc1sc2c(NC3CCN(C)CC3F)cccc2c1CC(F)(F)F (stereo not shown) [Example 68, N-(3-fluoro-1-methylpiperidin-4-yl)-4-((3-(7-(((Z)-3-fluoro-1-methylpiperidin-4-yl)amino)-3-(2,2,2-trifluoroethyl)benzo[b]thiophen-2-yl)prop-2-yn-1-yl)amino)-3-methoxybenzamide] | 1.08 | 0.64 | 1.39 | – | – | – | – |
| 0.066 | CN1CC[C@@H](Nc2cccc3c(CC(F)(F)F)c(C#CCNc4ccc(P(C)(C)=O)cc4S(C)(=O)=O)sc23)[C@@H](F)C1 [Example 175, (4-((3-(7-(((3S,4R)-3-fluoro-1-methylpiperidin-4-yl)amino)-3-(2,2,2-trifluoroethyl)benzo[b]thiophen-2-yl)prop-2-yn-1-yl)amino)-3-(methylsulfonyl)phenyl)dimethylphosphine oxide] | – | – | – | 3.55 | 0.64 | 35.2 | – |
| 0.069 | CN1CC[C@@H](Nc2cccc3c(CC(F)(F)F)c(C#CCNC(=O)c4cnn(C(C)(C)C)c4)sc23)[C@@H](F)C1 (racemic) [Example 129, 1-(tert-butyl)-N-(3-(7-(((Z)-3-fluoro-1-methylpiperidin-4-yl)amino)-3-(2,2,2-trifluoroethyl)benzo[b]thiophen-2-yl)prop-2-yn-1-yl)-1H-pyrazole-4-carboxamide] | – | – | – | 1.85 | 0.18 | 8.95 | – |
| 0.105 | COc1cc(P(C)(C)=O)ccc1NCC#Cc1sc2c(N[C@@H]3CCN(CC(C)C)C[C@@H]3F)cccc2c1CC(F)(F)F (racemic) [Example 101, (4-((3-(7-(((Z)-3-fluoro-1-isobutylpiperidin-4-yl)amino)-3-(2,2,2-trifluoroethyl)benzo[b]thiophen-2-yl)prop-2-yn-1-yl)amino)-3-methoxyphenyl)dimethylphosphine oxide] | – | – | – | 2.05 | 0.36 | 2.05 | – |
| 0.076 | COc1cc(P(C)(C)=O)ccc1NCC#Cc1sc2c(NC3CCN(C)CC3C(F)(F)F)cccc2c1CC(F)(F)F (racemic) [Example 170, (3-methoxy-4-((3-(7-(((E)-1-methyl-3-(trifluoromethyl)piperidin-4-yl)amino)-3-(2,2,2-trifluoroethyl)benzo[b]thiophen-2-yl)prop-2-yn-1-yl)amino)phenyl)di methylphosphine oxide (racemic)] | 1.64 | – | 3.72 | – | – | – | – |
| 0.07 | COc1cc(P(C)(C)=O)ccc1NCC#Cc1sc2c(NC3CCN(C)CC3C(F)(F)F)cccc2c1CC(F)(F)F (racemic) [Example 169, (3-methoxy-4-((3-(7-(((Z)-1-methyl-3-(trifluoromethyl)piperidin-4-yl)amino)-3-(2,2,2-trifluoroethyl)benzo[b]thiophen-2-yl)prop-2-yn-1-yl)amino)phenyl)dimethylphosphine oxide] | – | – | – | 1.63 | – | 4.33 | – |

Further lines, the molecule ahead of its results:

| SMILES | EC50 [1] [µM] | IC50 (NUGC3 (P53 Y220C)) [µM] | EC50 [2] [µM] | IC50 (NUGC4 (P53 WT)) [µM] | IC50 (NUGC3 (P53 Y220C); Homo sapiens, NUGC-3, 144 h) [µM] | EC50 ([2]; Homo sapiens, NUGC-3) [µM] | IC50 (NUGC4 (P53 WT); Homo sapiens, NUGC-4, 144 h) [µM] | EC50 ([2]; Homo sapiens, NUGC-3, 6 h) [µM] |
| --- | --- | --- | --- | --- | --- | --- | --- | --- |
| COc1cc(C(N)=O)ncc1NCC#Cc1sc2c(NC3CCN(C)CC3F)cccc2c1CC(F)(F)F (stereo not shown) [Example 61, 5-((3-(3-(2,2,2-trifluoroethyl)-7-(((Z)-3-fluoro-1-methylpiperidin-4-yl)amino)benzo[b]thiophen-2-yl)prop-2-yn-1-yl)amino)-4-methoxypicolinamide] | 0.102 | 4.53 | 0.53 | 13 | – | – | – | – |
| CN1CC[C@@H](Nc2cccc3c(CC(F)(F)F)c(C#CCNc4ccc(P(C)(C)=O)cc4-c4cc[nH]n4)sc23)[C@@H](F)C1 [Example 200, (4-((3-(7-(((3S,4R)-3-fluoro-1-methylpiperidin-4-yl)amino)-3-(2,2,2-trifluoroethyl)benzo[b]thiophen-2-yl)prop-2-yn-1-yl)amino)-3-(1H-pyrazol-3-yl)phenyl)dimethylphosphine oxide] | 0.025 | – | – | – | – | – | 13.1 | 0.06 |
| COc1cc(P(C)(C)=O)ccc1NCC#Cc1sc2c(N[C@H]3CCN(C)C[C@@H]3C)cccc2c1CC(F)(F)F [Example 127, (4-((3-(7-(((3S,4S)-1,3-dimethylpiperidin-4-yl)amino)-3-(2,2,2-trifluoroethyl)benzo[b]thiophen-2-yl)prop-2-yn-1-yl)amino)-3-methoxyphenyl)dimethylphosphine oxide] | 0.038 | – | – | – | 0.33 | – | 2.26 | 0.1 |
| CN1CC[C@@H](Nc2cccc3c(CC(F)(F)F)c(C#CCNc4ccc(P(C)(C)=O)cc4-c4cnco4)sc23)[C@@H](F)C1 [Example 214, (4-((3-(7-(((3S,4R)-3-fluoro-1-methylpiperidin-4-yl)amino)-3-(2,2,2-trifluoroethyl)benzo[b]thiophen-2-yl)prop-2-yn-1-yl)amino)-3-(oxazol-5-yl)phenyl)dimethylphosphine oxide] | 0.038 | – | – | – | 0.38 | – | 13.9 | 0.1 |
| CCP(=O)(CC)c1ccc(NCC#Cc2sc3c(N[C@@H]4CCN(C)C[C@@H]4F)cccc3c2CC(F)(F)F)c(OCF)c1 (racemic) [Example 66, diethyl(4-((3-(7-(((Z)-3-fluoro-1-methylpiperidin-4-yl)amino)-3-(2,2,2-trifluoroethyl)benzo[b]thiophen-2-yl)prop-2-yn-1-yl)amino)-3-(fluoromethoxy)phenyl)phosphine oxide] | 0.06 | – | – | – | 0.82 | 0.12 | 10.3 | – |
| CN1CC[C@@H](Nc2cccc3c(CC(F)(F)F)c(C#CCNc4ccc(P(C)(C)=O)cc4C(=O)NC4COC4)sc23)[C@@H](F)C1 [Example 217, 5-(dimethylphosphoryl)-2-((3-(7-(((3S,4R)-3-fluoro-1-methylpiperidin-4-yl)amino)-3-(2,2,2-trifluoroethyl)benzo[b]thiophen-2-yl)prop-2-yn-1-yl)amino)-N-(oxetan-3-yl)benzamide] | – | – | – | – | 0.32 | 0.15 | 15.4 | – |
| CN1CCC(Nc2cccc3c(CC(F)(F)F)c(C#CCNc4ccc(P(C)(C)=O)cc4OC4CC4)sc23)[C@@H](F)C1 (stereo in doubt) [Example 106, (3-cyclopropoxy-4-((3-(7-(((Z)-3-fluoro-1-methylpiperidin-4-yl)amino)-3-(2,2,2-trifluoroethyl)benzo[b]thiophen-2-yl)prop-2-yn-1-yl)amino)phenyl)dimethylphosphine oxide] | – | – | – | – | 0.78 | – | 3.8 | 0.09 |
